Assay results taken from patent publication US6380166B1, “Glucopyranosides conjugates of 2-(4-hydroxy-phenyl)-3-methyl-1-[4-(2-amin-1-yl-ethoxy)-benzyl]-1H-indol-5-ols” (American Home Products Corporation, priority 1999, dated 2002).
Counter-ions that a name gives are not always drawn.

Molecular target: T1, estrogen receptor (Homo sapiens, UniProt P03372)
T1 construct: since the MCF-7 cells express estrogen receptors; endogenous in cells; host or cells: MCF-7 human breast carcinoma cells infected with adenovirus 5-ERE-tk-luciferase (reporter only)
T1 sequence (P03372 1-595): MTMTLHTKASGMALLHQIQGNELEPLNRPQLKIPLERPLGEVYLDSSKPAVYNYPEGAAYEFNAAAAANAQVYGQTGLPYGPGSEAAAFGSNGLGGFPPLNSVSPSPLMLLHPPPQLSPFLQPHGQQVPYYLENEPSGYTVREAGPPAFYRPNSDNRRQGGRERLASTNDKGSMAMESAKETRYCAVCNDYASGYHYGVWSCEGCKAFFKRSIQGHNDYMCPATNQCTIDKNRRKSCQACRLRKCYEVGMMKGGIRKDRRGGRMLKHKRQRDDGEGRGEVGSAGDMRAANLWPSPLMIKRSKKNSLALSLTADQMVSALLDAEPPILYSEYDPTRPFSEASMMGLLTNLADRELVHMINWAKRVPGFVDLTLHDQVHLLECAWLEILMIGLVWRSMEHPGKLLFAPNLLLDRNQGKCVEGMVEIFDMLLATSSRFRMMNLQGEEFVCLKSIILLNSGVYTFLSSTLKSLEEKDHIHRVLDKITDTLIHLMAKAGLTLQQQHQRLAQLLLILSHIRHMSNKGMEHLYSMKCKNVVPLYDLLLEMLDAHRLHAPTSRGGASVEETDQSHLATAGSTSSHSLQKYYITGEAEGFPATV
Test: MCF-7 ERE-tk-luciferase test procedure, antagonist mode
Assay type: cell-based
Conditions: co-dosed with 10 pM 17β-estradiol, MCF-7 cells infected with adenovirus 5-ERE-tk-luciferase, treated 24 h
From the text: Estrogen antagonist activity was shown for representative compounds of this invention in a standard pharmacological test procedure using MCF-7 cells transfected with an estrogen receptor. When administered orally, the compounds of this invention act at least partially as prodrugs for the corresponding hydroxylated compounds disclosed in EP 802183. Accordingly, the compounds of this invention are tissue selective estrogens, meaning that in certain tissue containing estrogen receptors, the compounds will act as estrogen agonists, and in other tissue containing estrogen receptors, the compounds will act as antagonists. […]
After treatment the cells were lysed on a shaker for 15 min with 25 uL/well of 1× cell culture lysis reagent (Promega Corporation). The cell lysates (20 uL) were transferred to a 96 well luminometer plate, and luciferase activity was measured in a MicroLumat LB 96 P luminometer (EG and G Bethold) using 100 uL/well of luciferase substrate (Promega Corporation). […] Following the injection of the substrate, luciferase activity was measured for 10 seconds after a 1 second delay. The data were transferred from the luminometer to a Macintosh personal computer and analyzed using the JMP software (SAS institute); this program subtracts the background reading from the luciferase measurement for each well and then determine the mean and standard deviation of each treatment. […]

Row | IC50 | Compound
1 | 1200 nM | Cc1c(-c2ccc(O[C@@H]3O[C@H](C(=O)O)[C@@H](O)[C@H](O)[C@H]3O)cc2)n(Cc2ccc(OCCN3CCCCC3)cc2)c2ccc(O)cc12 [Compound 37, 2-(4-Hydroxy-phenyl)-3-methyl-1-[4-(2-piperidin-1-yl-ethoxy)-benzyl]-1H-indol-5-ol 4-O-Glucuronide Triethyl Ammonium Salt]
2 | 230 nM | Cc1c(-c2ccc(O)cc2)n(Cc2ccc(OCCN3CCCCC3)cc2)c2ccc(O[C@@H]3O[C@H](C(=O)O)[C@@H](O)[C@H](O)[C@H]3O)cc12 [Compound 29, 1-[4-(2-Piperidin-1-yl-ethoxy)-benzyl]-2-(4-hydroxy-phenyl)-3-methyl-1H-indol-5-ol 5-O-glucuronide triethylammonium salt]
